# PMC6326728, “eIF2B activator prevents neurological defects caused by a chronic integrated stress response” (eLife, 2019)
# How the values were obtained:
# Assay in all cases: biochemical
# Design in all cases: CEREP panel radioligand binding displacement, % inhibition of control specific binding by 10 uM 2BAct
# k (KOP) = target: T1, k (KOP) (Rattus norvegicus, UniProt P34975); conditions: Type=Agonist radioligand; read-out: % inhibition of Control specific binding
# T1 construct: gene Oprk1
# Experimental: (§1) Supplementary file elife-42940-supp1.xlsx: Supplementary file 1. (A) Binding of 2BAct at 10 μM to the CEREP panel of receptors/enzymes/ion channels. Compound binding was calculated as a % inhibition of the binding of a radioactively labeled ligand specific for each target. Results showing inhibition or stimulation higher than 50% are considered to represent significant effects of the test compound. (B) Pharmacokinetic data from 2BAct dosing in mice. (C) GO Biological Processes identified by enrichment analysis of RNA-seq data. (D) List of genes used for enrichment analysis of scRNA-seq data.
# Estrogen ER alpha (h) = target: T2, Estrogen ER alpha (h) (Homo sapiens, UniProt P03372); conditions: Type=Agonist radioligand; read-out: % inhibition of Control specific binding
# T2 construct: gene ESR1
# T2 sequence (P03372 whole entry): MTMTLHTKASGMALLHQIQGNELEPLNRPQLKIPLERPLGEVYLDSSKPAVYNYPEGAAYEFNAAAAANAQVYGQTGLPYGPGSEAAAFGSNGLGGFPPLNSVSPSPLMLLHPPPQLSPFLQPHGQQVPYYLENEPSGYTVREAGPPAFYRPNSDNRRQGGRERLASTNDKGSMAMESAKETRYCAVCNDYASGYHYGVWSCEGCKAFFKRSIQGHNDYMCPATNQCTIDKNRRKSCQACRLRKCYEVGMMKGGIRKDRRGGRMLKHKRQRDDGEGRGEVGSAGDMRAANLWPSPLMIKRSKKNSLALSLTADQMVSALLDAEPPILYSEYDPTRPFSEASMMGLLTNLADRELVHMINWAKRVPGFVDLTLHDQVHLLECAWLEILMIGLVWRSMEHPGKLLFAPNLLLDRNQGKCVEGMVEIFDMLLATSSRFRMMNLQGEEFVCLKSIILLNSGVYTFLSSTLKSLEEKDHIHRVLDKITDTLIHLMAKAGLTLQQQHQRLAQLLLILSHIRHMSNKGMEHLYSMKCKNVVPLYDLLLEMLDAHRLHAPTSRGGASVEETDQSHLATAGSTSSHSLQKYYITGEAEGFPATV
# Experimental: as §1
# AR (h) = AR (h) (Homo sapiens, UniProt P10275); conditions: Type=Agonist radioligand; read-out: % inhibition of Control specific binding
# Sequence of AR (h) (P10275 whole entry): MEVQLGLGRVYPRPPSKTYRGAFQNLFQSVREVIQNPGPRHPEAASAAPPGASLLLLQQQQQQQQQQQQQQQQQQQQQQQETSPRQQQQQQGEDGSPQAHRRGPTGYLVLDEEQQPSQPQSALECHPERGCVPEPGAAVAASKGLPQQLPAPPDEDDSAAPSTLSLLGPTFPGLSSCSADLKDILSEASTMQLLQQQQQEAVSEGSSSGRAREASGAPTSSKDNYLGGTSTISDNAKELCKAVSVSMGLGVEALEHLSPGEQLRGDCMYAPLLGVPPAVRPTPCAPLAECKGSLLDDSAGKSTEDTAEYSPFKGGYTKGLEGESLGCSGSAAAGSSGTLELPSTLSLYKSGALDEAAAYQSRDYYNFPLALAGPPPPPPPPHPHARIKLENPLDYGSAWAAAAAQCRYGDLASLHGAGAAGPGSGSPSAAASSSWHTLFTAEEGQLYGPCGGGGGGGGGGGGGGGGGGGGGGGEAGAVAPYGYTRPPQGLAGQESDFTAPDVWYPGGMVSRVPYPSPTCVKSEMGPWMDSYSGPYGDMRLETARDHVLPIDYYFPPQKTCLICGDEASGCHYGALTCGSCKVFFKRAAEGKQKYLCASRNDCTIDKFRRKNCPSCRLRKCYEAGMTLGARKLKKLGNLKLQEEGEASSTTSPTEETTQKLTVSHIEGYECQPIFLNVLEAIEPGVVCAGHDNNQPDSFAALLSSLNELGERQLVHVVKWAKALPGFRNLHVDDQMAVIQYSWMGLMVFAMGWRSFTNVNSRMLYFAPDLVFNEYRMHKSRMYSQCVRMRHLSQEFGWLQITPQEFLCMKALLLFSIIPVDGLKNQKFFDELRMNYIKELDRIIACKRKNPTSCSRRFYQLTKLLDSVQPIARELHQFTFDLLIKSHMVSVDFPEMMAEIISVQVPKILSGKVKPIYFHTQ
# Experimental: as §1
# VPAC1 (VIP1) (h) = target: T3, VPAC1 (VIP1) (h) (Homo sapiens, UniProt P32241); conditions: Type=Agonist radioligand; read-out: % inhibition of Control specific binding
# T3 construct: gene VIPR1
# T3 sequence (P32241 whole entry): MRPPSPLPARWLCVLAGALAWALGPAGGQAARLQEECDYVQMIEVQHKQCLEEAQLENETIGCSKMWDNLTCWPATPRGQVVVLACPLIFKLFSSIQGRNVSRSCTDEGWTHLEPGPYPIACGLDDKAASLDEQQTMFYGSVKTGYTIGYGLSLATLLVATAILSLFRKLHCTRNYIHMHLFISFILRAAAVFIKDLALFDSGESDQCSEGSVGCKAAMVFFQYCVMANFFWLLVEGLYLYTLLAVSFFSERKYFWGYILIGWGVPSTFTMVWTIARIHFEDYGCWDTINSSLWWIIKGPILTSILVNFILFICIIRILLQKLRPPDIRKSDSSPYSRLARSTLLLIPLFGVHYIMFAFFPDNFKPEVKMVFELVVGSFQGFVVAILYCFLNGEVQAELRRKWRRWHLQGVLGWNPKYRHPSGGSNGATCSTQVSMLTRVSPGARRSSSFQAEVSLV
# Experimental: as §1
# A1 (h) = target: T4, A1 (h) (Homo sapiens, UniProt P30542); conditions: Type=Antagonist radioligand; read-out: % inhibition of Control specific binding
# T4 construct: gene ADORA1
# T4 sequence (P30542 whole entry): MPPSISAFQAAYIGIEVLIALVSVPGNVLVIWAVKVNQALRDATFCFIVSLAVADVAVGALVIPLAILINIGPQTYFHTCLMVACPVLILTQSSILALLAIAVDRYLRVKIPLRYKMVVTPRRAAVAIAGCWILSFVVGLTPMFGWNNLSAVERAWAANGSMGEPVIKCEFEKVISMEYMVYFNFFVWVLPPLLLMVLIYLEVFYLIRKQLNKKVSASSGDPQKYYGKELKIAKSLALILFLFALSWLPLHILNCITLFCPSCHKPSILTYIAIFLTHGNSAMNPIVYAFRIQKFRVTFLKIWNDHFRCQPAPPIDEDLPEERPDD
# Experimental: as §1
# GR (h) = target: T5, GR (h) (Homo sapiens, UniProt P04150); conditions: Type=Agonist radioligand; read-out: % inhibition of Control specific binding
# T5 construct: gene NR3C1
# Experimental: as §1
# 5-HT2B (h) = target: T6, 5-HT2B (h) (Homo sapiens, UniProt P41595); conditions: Type=Agonist radioligand; read-out: % inhibition of Control specific binding
# T6 construct: gene HTR2B
# T6 sequence (P41595 whole entry): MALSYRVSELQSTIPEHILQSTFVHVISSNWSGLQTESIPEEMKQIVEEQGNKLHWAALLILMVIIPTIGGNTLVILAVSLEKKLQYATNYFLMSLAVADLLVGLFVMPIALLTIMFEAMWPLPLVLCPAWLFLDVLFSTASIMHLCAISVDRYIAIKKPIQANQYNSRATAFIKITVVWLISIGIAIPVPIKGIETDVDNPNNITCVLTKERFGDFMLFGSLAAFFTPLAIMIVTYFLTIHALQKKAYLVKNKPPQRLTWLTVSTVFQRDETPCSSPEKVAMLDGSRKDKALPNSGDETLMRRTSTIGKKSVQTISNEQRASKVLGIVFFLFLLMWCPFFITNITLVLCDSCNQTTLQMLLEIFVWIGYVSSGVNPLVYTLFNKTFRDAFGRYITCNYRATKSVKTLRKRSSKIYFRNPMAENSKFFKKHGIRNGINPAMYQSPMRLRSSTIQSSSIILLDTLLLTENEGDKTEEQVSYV
# Experimental: as §1
# PPARg (h) = PPARg (h) (Homo sapiens, UniProt P37231); conditions: Type=Agonist radioligand; read-out: % inhibition of Control specific binding
# Experimental: as §1
# MAO-A = target: T7, MAO-A (Rattus norvegicus, UniProt P21396); conditions: Type=Antagonist radioligand; read-out: % inhibition of Control specific binding
# T7 construct: gene Maoa
# T7 sequence (P21396 whole entry): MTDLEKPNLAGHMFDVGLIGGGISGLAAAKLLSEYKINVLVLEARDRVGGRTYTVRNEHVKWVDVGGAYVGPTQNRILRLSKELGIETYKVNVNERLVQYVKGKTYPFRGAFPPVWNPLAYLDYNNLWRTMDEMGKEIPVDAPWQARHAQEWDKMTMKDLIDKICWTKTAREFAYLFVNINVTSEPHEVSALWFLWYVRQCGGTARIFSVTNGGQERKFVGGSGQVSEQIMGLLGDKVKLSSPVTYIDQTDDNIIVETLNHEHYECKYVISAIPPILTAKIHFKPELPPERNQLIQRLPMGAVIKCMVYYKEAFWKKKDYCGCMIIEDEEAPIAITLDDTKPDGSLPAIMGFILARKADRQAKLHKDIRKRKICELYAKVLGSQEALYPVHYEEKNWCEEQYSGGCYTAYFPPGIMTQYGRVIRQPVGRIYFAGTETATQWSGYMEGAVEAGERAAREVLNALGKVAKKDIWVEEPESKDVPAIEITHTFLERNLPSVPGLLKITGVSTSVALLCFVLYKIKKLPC
# Experimental: as §1
# D1 (h) = target: T8, D1 (h) (Homo sapiens, UniProt P21728); conditions: Type=Antagonist radioligand; read-out: % inhibition of Control specific binding
# T8 construct: gene DRD1
# T8 sequence (P21728 whole entry): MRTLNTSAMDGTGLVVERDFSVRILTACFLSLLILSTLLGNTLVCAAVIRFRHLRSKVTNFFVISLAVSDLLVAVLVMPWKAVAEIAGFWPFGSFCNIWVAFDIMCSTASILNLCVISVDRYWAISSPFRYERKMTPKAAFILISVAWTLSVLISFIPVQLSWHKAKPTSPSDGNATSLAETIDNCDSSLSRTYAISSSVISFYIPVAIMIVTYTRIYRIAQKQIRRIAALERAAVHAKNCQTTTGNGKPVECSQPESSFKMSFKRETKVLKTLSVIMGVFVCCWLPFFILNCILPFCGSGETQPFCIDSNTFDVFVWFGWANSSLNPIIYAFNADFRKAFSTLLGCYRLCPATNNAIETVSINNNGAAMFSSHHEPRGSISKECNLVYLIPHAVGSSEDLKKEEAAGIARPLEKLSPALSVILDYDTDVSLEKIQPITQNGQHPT
# Experimental: as §1
# a1A (h) = target: T9, a1A (h) (Homo sapiens, UniProt P35348); conditions: Type=Antagonist radioligand; read-out: % inhibition of Control specific binding
# T9 construct: gene ADRA1A
# Experimental: as §1
# A2a (h) = target: T10, A2a (h) (Homo sapiens, UniProt P29274); conditions: Type=Agonist radioligand; read-out: % inhibition of Control specific binding
# T10 construct: gene ADORA2A
# T10 sequence (P29274 whole entry): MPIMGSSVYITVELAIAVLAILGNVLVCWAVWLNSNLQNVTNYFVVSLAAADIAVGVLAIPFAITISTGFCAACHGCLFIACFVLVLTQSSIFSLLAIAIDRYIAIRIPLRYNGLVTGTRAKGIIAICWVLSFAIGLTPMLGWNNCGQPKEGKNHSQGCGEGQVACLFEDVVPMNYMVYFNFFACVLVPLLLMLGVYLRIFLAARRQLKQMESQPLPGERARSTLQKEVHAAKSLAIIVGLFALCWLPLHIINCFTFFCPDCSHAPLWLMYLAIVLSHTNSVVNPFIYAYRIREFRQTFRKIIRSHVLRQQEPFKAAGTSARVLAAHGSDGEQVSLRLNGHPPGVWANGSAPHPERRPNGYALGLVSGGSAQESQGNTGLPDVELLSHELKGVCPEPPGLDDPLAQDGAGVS
# Experimental: as §1
# UT (h) = target: T11, UT (h) (Homo sapiens, UniProt Q9UKP6); conditions: Type=Agonist radioligand; read-out: % inhibition of Control specific binding
# T11 construct: gene UTS2R
# T11 sequence (Q9UKP6 whole entry): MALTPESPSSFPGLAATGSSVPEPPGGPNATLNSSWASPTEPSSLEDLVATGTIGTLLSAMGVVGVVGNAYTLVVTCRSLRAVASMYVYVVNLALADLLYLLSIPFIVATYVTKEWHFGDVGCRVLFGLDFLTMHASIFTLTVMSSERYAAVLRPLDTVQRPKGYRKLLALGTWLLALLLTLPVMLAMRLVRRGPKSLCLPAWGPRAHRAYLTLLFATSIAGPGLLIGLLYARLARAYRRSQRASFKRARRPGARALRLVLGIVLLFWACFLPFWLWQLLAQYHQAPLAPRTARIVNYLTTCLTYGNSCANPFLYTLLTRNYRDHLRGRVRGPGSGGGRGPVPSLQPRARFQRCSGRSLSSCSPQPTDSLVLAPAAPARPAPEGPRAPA
# Experimental: as §1
# AT1 (h) = target: T12, AT1 (h) (Homo sapiens, UniProt P30556); conditions: Type=Antagonist radioligand; read-out: % inhibition of Control specific binding
# T12 construct: gene AGTR1
# T12 sequence (P30556 whole entry): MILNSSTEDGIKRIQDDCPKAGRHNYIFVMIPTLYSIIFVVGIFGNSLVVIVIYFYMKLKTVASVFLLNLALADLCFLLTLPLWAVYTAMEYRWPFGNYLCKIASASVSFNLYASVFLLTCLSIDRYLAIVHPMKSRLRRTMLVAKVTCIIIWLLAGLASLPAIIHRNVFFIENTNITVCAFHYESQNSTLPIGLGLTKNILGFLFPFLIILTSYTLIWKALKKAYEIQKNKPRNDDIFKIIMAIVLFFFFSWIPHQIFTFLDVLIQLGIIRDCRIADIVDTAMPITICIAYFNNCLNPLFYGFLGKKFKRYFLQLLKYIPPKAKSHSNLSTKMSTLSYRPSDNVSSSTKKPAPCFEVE
# Experimental: as §1
# NK1 (h) = target: T13, NK1 (h) (Homo sapiens, UniProt P25103); conditions: Type=Agonist radioligand; read-out: % inhibition of Control specific binding
# T13 construct: gene TACR1
# Experimental: as §1
# H2 (h) = target: T14, H2 (h) (Homo sapiens, UniProt P25021); conditions: Type=Antagonist radioligand; read-out: % inhibition of Control specific binding
# T14 construct: gene HRH2
# Experimental: as §1
# H1 (h) = target: T15, H1 (h) (Homo sapiens, UniProt P35367); conditions: Type=Antagonist radioligand; read-out: % inhibition of Control specific binding
# T15 construct: gene HRH1
# Experimental: as §1
structure (smiles),measurement,setting,value
O=C(COc1ccc(Cl)c(F)c1)NC12CC(NC(=O)c3cnc(C(F)F)cn3)(C1)C2 [2BAct],inhibition at 10 µM,k (KOP),2.1%
same,inhibition at 10 µM,Estrogen ER alpha (h),-7.7%
same,inhibition at 10 µM,AR (h),-0.2%
same,inhibition at 10 µM,VPAC1 (VIP1) (h),-9.7%
same,inhibition at 10 µM,A1 (h),2.1%
same,inhibition at 10 µM,GR (h),3.2%
same,inhibition at 10 µM,5-HT2B (h),8.6%
same,inhibition at 10 µM,PPARg (h),19%
same,inhibition at 10 µM,MAO-A,10.2%
same,inhibition at 10 µM,D1 (h),5.9%
same,inhibition at 10 µM,a1A (h),6.6%
same,inhibition at 10 µM,A2a (h),24.8%
same,inhibition at 10 µM,UT (h),5.8%
same,inhibition at 10 µM,AT1 (h),13.2%
same,inhibition at 10 µM,NK1 (h),29.1%
same,inhibition at 10 µM,H2 (h),-17.4%
same,inhibition at 10 µM,H1 (h),0.2%
